# Reference: patent publication US20230365561A1, “BETA-LACTAMASE INHIBITORS AND THEIR PREPARATION” (NINGXIA ACADEMY OF AGRICUL TURE AND FORESTRY SCIENCES, priority 2020, published 2023)
# Counter-ions that a name gives are not always drawn. Like-named read-outs stand apart in the source and are kept apart here.
# Legend:
# Assay type in all cases: cell-based
# [1] = system: E. cloacae 700323 (strain 6); assay: MIC by broth microdilution (alone and in combination with meropenam), strain 6; conditions: Enterobacter cloacae, compound alone
# Protocol: (§1) Compounds of the present invention alone, meropenam (MER) alone, and as a combination with test antibiotic (meropenam) were tested for antimicrobial activity by determing minimum inhibitory concentration (MIC, mg/L) using the broth microdilution method according to the guidelines of the Clinical Laboratories and Stansards Insitute (“Methods for Dilution Antimicrobial Suscetibility Tests for Bacterial that Grow Aerobiclly”, Approved standard, […]., Clinical and Laboratories Stanards Institute (CLSI) Document M7-A8, Wayne, Pa., USA, 2009). Meropenam as a test antibiotic compound was dissolved in DMSO. Meropenam was then diluted in microbial growth medium (Mueller-Hinton Broth II, cation adjusted) resulting in a final concention range of 0.125-64 mg/L in serial two-fold dilution. In all cases the filnal DMSO concentraion was less than 0.5%. Bacteria were added to 96-well microtitre plates containing the serial two-fold dilutions of the compoumds; the final cell density was appoximately 5x10^5 colony forming units/mL (CFU/mL). Plates were incubated at 37° C. for 18-24 hours and read visually. The MIC, i.e. the lowest concentration of the test compound that inhibited visible growth of the bacteria, was recorded. The same assay conditions were used when the compounds of present invention alone, and as a combination with test meropenam antibiotic compound was tested for minmum inhibitory concentration (MIC, mg/L). Whileest meropenam was serially diluted as descrribed above, a constant concentration of the present invention of 4 µg/mL was used.
# (§2) Bacterial strains that were used to evaluate the antimicrobial activity using the MIC determination included but were not limited to E. coli clinical isolate (strain 1), E. coli 8739 (strain 2), K. pneumoniae clinical isolate (strain 3), K. pneumoniae 700603 (strain 4), E. cloacae clinical isolate (strain 5), E. cloacae 700323 (strain 6), A. baumannii clinical isolate (strain 7), A. baumannii 19606 (strain 8), P. aeruginosa clinical isolate (strain 9), P. aeruginosa 9027 (strain 10).
# [2] = system: A. baumannii clinical isolate (strain 7); assay: MIC by broth microdilution (alone and in combination with meropenam), strain 7; conditions: Acinetobacter baumannii, compound alone
# Protocol: as §1, §2
# [3] = system: K. pneumoniae clinical isolate (strain 3); assay: MIC by broth microdilution (alone and in combination with meropenam), strain 3; conditions: Klebsiella pneumoniae, compound alone
# Protocol: as §1, §2
# [4] = system: E. coli clinical isolate (strain 1); assay: MIC by broth microdilution (alone and in combination with meropenam), strain 1; conditions: Escherichia coli, compound alone
# Protocol: as §1, §2
# [5] = system: E. cloacae clinical isolate (strain 5); assay: MIC by broth microdilution (alone and in combination with meropenam), strain 5; conditions: Enterobacter cloacae, compound alone
# Protocol: as §1, §2
# [6] = system: A. baumannii 19606 (strain 8); assay: MIC by broth microdilution (alone and in combination with meropenam), strain 8; conditions: Acinetobacter baumannii, compound alone
# Protocol: as §1, §2
# [7] = system: K. pneumoniae 700603 (strain 4); assay: MIC by broth microdilution (alone and in combination with meropenam), strain 4; conditions: Klebsiella pneumoniae, compound alone
# Protocol: as §1, §2
# [8] = system: P. aeruginosa 9027 (strain 10); assay: MIC by broth microdilution (alone and in combination with meropenam), strain 10; conditions: Pseudomonas aeruginosa, compound alone
# Protocol: as §1, §2
# [9] = system: E. coli 8739 (strain 2); assay: MIC by broth microdilution (alone and in combination with meropenam), strain 2; conditions: Escherichia coli, compound alone
# Protocol: as §1, §2
# [10] = system: P. aeruginosa clinical isolate (strain 9); assay: MIC by broth microdilution (alone and in combination with meropenam), strain 9; conditions: Pseudomonas aeruginosa, compound alone
# Protocol: as §1, §2
# [11] = read-out: MIC, antibacterial activity of example alone
"MIC [1, 11] [µg/mL]","MIC [2, 11] [µg/mL]","MIC [3, 11] [µg/mL]","MIC [4, 11] [µg/mL]","MIC [5, 11] [µg/mL]","MIC [6, 11] [µg/mL]","MIC [7, 11] [µg/mL]","MIC [8, 11] [µg/mL]","MIC [9, 11] [µg/mL]","MIC [10, 11] [µg/mL]",MIC ([1]; read-out: MIC) [µg/mL],MIC ([2]; read-out: MIC) [µg/mL],MIC ([3]; read-out: MIC) [µg/mL],MIC ([4]; read-out: MIC) [µg/mL],MIC ([5]; read-out: MIC) [µg/mL],MIC ([6]; read-out: MIC) [µg/mL],MIC ([7]; read-out: MIC) [µg/mL],MIC ([8]; read-out: MIC) [µg/mL],MIC ([9]; read-out: MIC) [µg/mL],MIC ([10]; read-out: MIC) [µg/mL],SMILES
> 64,> 64,> 64,> 64,> 64,> 64,> 64,> 64,> 64,> 64,–,–,–,–,–,–,–,–,–,–,"CN1CC[C@@H](C(=O)NC(=N)[C@@H]2CC[C@@H]3CN2C(=O)N3OS(=O)(=O)O)C1 [Ex.33, Sodium (2S,5R)-2-(N-((R)-1-methylpyrrolidine-3-carbonyl)carbamimidoyl)-7-oxo-1,6-diazabicyclo[3.2.1]octan-6-yl Sulfate]"
> 64,> 64,> 64,> 64,> 64,> 64,> 64,> 64,> 64,> 64,–,–,–,–,–,–,–,–,–,–,"CC(=O)N1CC[C@@H](C(=O)NC(=N)[C@@H]2CC[C@@H]3CN2C(=O)N3OS(=O)(=O)O)C1 [Ex.31, Sodium (2S,5R)-2-(N-((R)-1-acetylpyrrolidine-3-carbonyl)carbamimidoyl)-7-oxo-1,6-diazabicyclo[3.2.1]octan-6-yl Sulfate]"
> 64,> 64,> 64,> 64,> 64,> 64,> 64,> 64,> 64,> 64,–,–,–,–,–,–,–,–,–,–,"N=C(NC(=O)CN)[C@@H]1CC[C@@H]2CN1C(=O)N2OS(=O)(=O)[O-].[Na+] [Ex.15, Sodium (2S,5R)-2-(N-glycylcarbamimidoyl)-7-oxo-1,6-diazabicyclo[3.2.1]octan-6-yl Sulfate]"
–,–,–,–,–,–,–,–,–,–,> 64,> 64,> 64,> 64,> 64,> 64,> 64,> 64,> 64,> 64,"N=C(NC(=O)c1ccc(C(F)(F)F)cn1)[C@@H]1CC[C@@H]2CN1C(=O)N2OS(=O)(=O)[O-].[Na+] [Ex.50, Sodium (2S,5R)-7-oxo-2-(N-(5-(trifluoromethyl)picolinoyl)carbamimidoyl)-1,6-diazabicyclo[3.2.1]octan-6-yl Sulfate]"
> 64,> 64,> 64,> 64,> 64,> 64,> 64,> 64,> 64,> 64,–,–,–,–,–,–,–,–,–,–,"CN1CCC[C@H](C(=O)NC(=N)[C@@H]2CC[C@@H]3CN2C(=O)N3OS(=O)(=O)[O-])C1.[Na+] [Ex.28, Sodium (2S,5R)-2-(N-((S)-1-methylpiperidine-3-carbonyl)carbamimidoyl)-7-oxo-1,6-diazabicyclo[3.2.1]octan-6-yl Sulfate]"
> 64,> 64,> 64,> 64,> 64,> 64,> 64,> 64,> 64,> 64,–,–,–,–,–,–,–,–,–,–,"N=C(NC(=O)CCN)[C@@H]1CC[C@@H]2CN1C(=O)N2OS(=O)(=O)[O-].[Na+] [Ex.11, Sodium (2S,5R)-2-(N-(3-aminopropanoyl)carbamimidoyl)-7-oxo-1,6-diazabicyclo[3.2.1]octan-6-yl Sulfate]"
> 64,> 64,> 64,> 64,> 64,> 64,> 64,> 64,> 64,> 64,–,–,–,–,–,–,–,–,–,–,"N=C(N)NOCCC(=O)NC(=N)[C@@H]1CC[C@@H]2CN1C(=O)N2OS(=O)(=O)O [Ex.43, (2S,5R)-2-(N-(3-(guanidinooxy)propanoyl)carbamimidoyl)-7-oxo-1,6-diazabicyclo[3.2.1]octan-6-yl Hydrogen Sulfate]"
> 64,> 64,> 64,> 64,> 64,> 64,> 64,> 64,> 64,> 64,–,–,–,–,–,–,–,–,–,–,"N=C(NC(=O)CCc1ccccn1)[C@@H]1CC[C@@H]2CN1C(=O)N2OS(=O)(=O)[O-].[Na+] [Ex.13, Sodium (2S,5R)-7-oxo-2-(N-(3-(pyridin-2-yl)propanoyl)carbamimidoyl)-1,6-diazabicyclo[3.2.1]octan-6-yl Sulfate]"
> 64,> 64,> 64,> 64,> 64,> 64,> 64,> 64,> 64,> 64,–,–,–,–,–,–,–,–,–,–,"N=C(NC(=O)c1ccncc1)[C@@H]1CC[C@@H]2CN1C(=O)N2OS(=O)(=O)O [Ex.7, (2S,5R)-2-(N-isonicotinoylcarbamimidoyl)-7-oxo-1,6-diazabicyclo[3.2.1]octan-6-yl Hydrogen Sulfate]"
> 64,> 64,> 64,> 64,> 64,> 64,> 64,> 64,> 64,> 64,–,–,–,–,–,–,–,–,–,–,"N=C(NC(=O)CC1CCCCC1)[C@@H]1CC[C@@H]2CN1C(=O)N2OS(=O)(=O)[O-].[Na+] [Ex.36, Sodium (2S,5R)-2-(N-(2-cyclohexylacetyl)carbamimidoyl)-7-oxo-1,6-diazabicyclo[3.2.1]octan-6-yl Sulfate]"
> 64,> 64,> 64,> 64,> 64,> 64,> 64,> 64,> 64,> 64,–,–,–,–,–,–,–,–,–,–,"CC(=O)NC(=N)[C@@H]1CC[C@@H]2CN1C(=O)N2OS(=O)(=O)O [Ex.9, (2S,5R)-2-(N-acetylcarbamimidoyl)-7-oxo-1,6-diazabicyclo[3.2.1]octan-6-yl Hydrogen Sulfate]"
> 64,> 64,> 64,> 64,> 64,> 64,> 64,> 64,> 64,> 64,–,–,–,–,–,–,–,–,–,–,"CC(=O)NC1CCC(C(=O)NC(=N)[C@@H]2CC[C@@H]3CN2C(=O)N3OS(=O)(=O)[O-])CC1.[Na+] (stereo partly drawn) [Ex.40, Sodium (2S,5R)-2-(N-(4-acetamidocyclohexane-1-carbonyl)carbamimidoyl)-7-oxo-1,6-diazabicyclo[3.2.1]octan-6-yl Sulfate]"
> 64,> 64,> 64,> 64,> 64,> 64,> 64,> 64,> 64,> 64,–,–,–,–,–,–,–,–,–,–,"N=C(NC(=O)CN1CCCCC1)[C@@H]1CC[C@@H]2CN1C(=O)N2OS(=O)(=O)[O-].[Na+] [Ex.35, Sodium (2S,5R)-7-oxo-2-(N-(2-(piperidin-1-yl)acetyl)carbamimidoyl)-1,6-diazabicyclo[3.2.1]octan-6-yl Sulfate]"
> 64,> 64,> 64,> 64,> 64,> 64,> 64,> 64,> 64,> 64,–,–,–,–,–,–,–,–,–,–,"N=C(NC(=O)c1ccccc1)[C@@H]1CC[C@@H]2CN1C(=O)N2OS(=O)(=O)O [Ex.2, (2S,5R)-2-(N-benzoylcarbamimidoyl)-7-oxo-1,6-diazabicyclo[3.2.1]octan-6-yl Hydrogen Sulfate]"
